Reference: patent publication US20060057669A1, “Inactive transcription factor tif-ia and uses thereof” (priority 2002, published 2006)

Columns and labels:
[1] = tested on: TIF-IA; test: In vitro transcription assay of TIF-IA purified from treated HEK293T cells, in nuclear extracts from rapamycin-treated cells; type: biochemical; conditions: 1 hr; okadaic acid 1 μM or calyculin A 50 nM with rapamycin 20 nM
Protocol: Nuclear extracts from rapamycin-treated cells were supplemented with 30 and 90 ng of TIF-IA that was immunopurified from HEK293T cells co-expressing FLAG-tagged TIF-IA and either GST/myc-tagged wild-type S6K1 (lanes 2-5) or S6K1E389ANAC (lanes 6-9).
B) Transcriptional activity of TIF-IA mutants in vitro. TIF-IA was purified from cells that were mock-treated (lanes 2, 3), or treated for 1 hr with either okadaic acid (1 μM), rapamycin (20 nM), calyculin A (50 nM), or both okadaic acid or calyculin A and rapamycin as indicated. 30 ng (even numbers) and 90 ng (odd numbers except 1) of TIF-IA were assayed for their capability to restore transcription of nuclear extracts from rapamycin-treated cells.
If S6K1 or S6K1-activated kinases were the only pathways that target TIF-IA and mediate mTOR-dependent regulation of Pol I transcription, then rapamycin should not inactivate TIF-IA if a rapamycin-resistant S6K1 mutant was co-expressed. This, however, was not the case.
Two mechanisms could be responsible for the decreased phosphorylation of S44 after rapamycin treatment, e.g., inhibition of the respective kinase or activation of a counteracting phosphatase. […] If PP2A dephosphorylates and thus inactivates TIF-IA, inhibition of PP2A should protect TIF-IA from inactivation by rapamycin. […]

[2] = tested on: HEK293T cells; test: Trypan blue staining; type: cell-based; conditions: data not shown
[3] = tested on: Pol I transcription; test: In vitro transcription: TIF-IA mutants added to nuclear extract from exponentially growing FM3A cells; type: biochemical, murine; conditions: 20 and 40 ng added to 15 ug nuclear extract
Protocol: 20 and 40 ng of the indicated TIF-IA mutants were added to 15 ug nuclear extract from exponentially growing FM3A cells and rDNA transcription was assayed.
(§1) Nuclear extracts were prepared from exponentially growing (8×10^5 cells/ml), density-arrested or PD98059-treated (CN Bioscience, Bad Soden, Germany) 40 μM, 0.5 hr) or rapamycin-treated FM3A cells (ATCC, Manassas, USA). 25 μl assays contained 50 ng of template DNA (pMr600/EcoRI), 30 μg nuclear extract proteins and 12 mM Hepes-KOH, [pH8.0], 0.1 mM EDTA, 5 mM MgCl2, 80 mM KCl, 10 mM creatine phosphate, 12% (v/v) glycerol, 0.66 mM each of ATP, GTP and CTP, 0.01 mM UTP and 0.5 μCi [α-^32P]UTP (5000 Ci/mmol). After incubation for 60 min at 30° C., RNA was extracted and analyzed on non-denaturing 5% polyacrylamide gels
Given that phosphorylation of TIF-IA at serine 649 is essential for transcription, excess of TIF-IAS649A should impair Pol I transcription. To test this, we examined the effect of exogenous wild-type and mutant TIF-IA on transcriptional activity of extracts from exponentially growing cells.

[4] = tested on: Pol I transcription; test: In vitro transcription: TIF-IA mutants restoring rDNA transcription of nuclear extract from density-arrested FM3A cells; type: biochemical, murine; conditions: S633/S649 mutants; 20 and 40 ng
Protocol: (A) Transcriptional activity of TIF-IA mutants in vitro. FLAG-tagged wild-type TIF-IA and the indicated single or double point mutants were overexpressed in HEK293T cells, immunopurified, and 20 and 40 ng were assayed for their capability to restore rDNA transcriptional activity of nuclear extract from density-arrested FM3A cells. The amount and purity of TIF-IA were estimated on silver-stained SDS-polyacrylamide gels and Western blots (data not shown).
(A) Transcriptional activity of TIF-IAS199A and TIF-IAS199D in vitro. FLAG-tagged wild-type TIF-IA and the indicated mutants were immunopurified from HEK293T cells, and 30 and 60 ng were assayed for their capability to restore transcriptional activity of nuclear extract from density-arrested FM3A cells. The amount and purity of TIF-IA were estimated on silver-stained SDS-polyacrylamide gels (data not shown).
(B) Transcriptional activity of TIF-IAS44A in vitro. FLAG-tagged wild-type TIF-IA and the indicated mutant were assayed for their transcriptional activity in vitro.
as §1
TIF-IA was immunopurified from untransfected NIH3T3 cells or from HEK293T cells overexpressing FLAG-tagged TIF-IA. 4×10^6 cells were lysed in 0.8 ml IP buffer (20 mM Tris-HCl [pH 7.4], 200 mM NaCl, 2 mM EDTA, 2 mM EGTA, 1% Triton X-100, 0.5 mM PMSF, 1 μg/ml aprotinin, 5 μg/ml leupeptin and 1 μg/ml pepstatin A), centrifuged at 10,000 g for 30 min, and the supernatants were incubated for 4 hr at 4° C. with either 10 μg anti-TIF-IA antibodies bound to 20 μl protein G-agarose or with anti-FLAG (M2) agarose (Sigma-Aldrich Corp., Missouri, USA). The immunocomplexes were successively washed with buffer AM (20 mM Tris-HCl [pH 8.0], 5 mM MgCl2, 0.1 mM EDTA, 20% glycerol) containing 400 and 100 mM KCl, respectively. The amount and purity of TIF-IA was estimated on silver-stained polyacrylamide gels and similar amounts of bead-bound TIF-IA were used in in vitro transcription assays. GST fusion proteins were expressed in E. coli BL21(DE3) and purified on Glutathione-Sepharose 4B according to the manufacturer's instructions.
To assess the functional relevance of S633 and S649 phosphorylation on transcriptional activity, the respective S→A and S→D single or double point mutants were purified from transfected cells and assayed for their capability to rescue transcription of extracts from density-arrested cells. […] Thus, phosphorylation of TIF-IA at S649 and S633 is required for transcriptional activity.
Phosphorylation of peptide a should inhibit TIF-IA activity, while phosphorylation of peptide b, e.g. S44, should augment TIF-IA activity.

[5] = tested on: HEK293T cells; test: Relative DNA content of sorted cells by FACS analysis; type: cell-based
Protocol: (§2) HEK293T cells were harvested 60 hr after transfection with pcDNA-FLAG-TIF-IA, fixed with 2% paraformaldehyde and permeabilized with 0.1% Triton X-100 in PBS. Transfected cells were labeled by incubation for 1 hr with 2 μg/ml FITC-conjugated anti-M2 antibodies (Sigma) and subsequently stained with 20 ag/ml propidium iodide (Sigma). Cell were analyzed with a FACSCan™ flow cytometer in the presence of CaliBRITE™ beads (Becton Dickinson, San Jose, USA). The number of cells expressing FLAG-TIF-IA was calculated from the ratio between FITC-positive cells and counted beads.
Given the functional significance of ERK/RSK-directed TIF-IA phosphorylation on Pol I transcription, mutations that enhance or abrogate TIF-IA activity may have a positive or negative effect on cell growth. To test this, HEK293T cells were transfected with cDNAs encoding wild-type or mutant TIF-IA which harbor single or double point mutations at S649 and S633. The expression of TIF-IA was estimated on Western blots and the cellular growth rate was measured by calcein-AM staining. […] Thus, cellular calcein fluorescence correlates with the amount of viable cells. […] Cells expressing FLAG-tagged wild-type or mutant TIF-IA were stained with FITC-conjugated anti-FLAG antibodies, identified by FACS and cell numbers were calculated by measuring the ratio of stained cells versus an internal standard. […]

[6] = tested on: HEK293T cells; test: Cell enumeration by dual-parameter flow cytometry; type: cell-based; conditions: 60 hr after transfection
Protocol: (C) Cell enumeration by flow cytometry. HEK293T cells expressing wild-type TIF-IA or the S649 mutants were harvested 60 hours after transfection, stained with FITC-conjugated anti-FLAG M2 antibodies and analyzed by dual-parameter flow cytometry in a FACScan™ flow cytometer in the presence of CaliBRITE™ calibration beads. 60,000 events were recorded from each sample. The number of cells expressing FLAG-TIF-IA was calculated from the ratio between FITC-positive cells and counted beads.
as §2, with “Transfected cells were labeled by incubation for 1 hr with 2 μg/ml FITC-conjugated anti-M2 antibodies (Sigma) and subsequently stained with 20 ag/ml propidium iodide (Sigma).” left out
Given the functional significance of ERK/RSK-directed TIF-IA phosphorylation on Pol I transcription, mutations that enhance or abrogate TIF-IA activity may have a positive or negative effect on cell growth. […] The expression of TIF-IA was estimated on Western blots and the cellular growth rate was measured by calcein-AM staining. […] Thus, cellular calcein fluorescence correlates with the amount of viable cells. […]

[7] = tested on: HEK293T cells; test: Quantitative fluorimetric viability assay with calcein-AM; type: cell-based; conditions: 24, 36, 48 and 60 hr after transfection; 2 μM calcein-AM
Protocol: (B) Quantitative fluorimetric viability assay with calcein-AM. HEK293T cells were transfected with TIF-IA or the indicated point mutants. […] Viable cells were measured 24, 36, 48 and 60 hr after transfection by incubation with […] calcein-AM. The gradual increase in fluorescence intensity was recorded with a fluorescence multi-well plate reader for 20 min with an excitation wavelength of 485 nm and an emission wavelength of 530 nm. The proliferation rate of mock-transfected cells and cells overexpressing TIF-IA is shown at the left. Plots show the accumulation of calcein fluorescence (arbitrary units) against time. Growth rates calculated from linear regression curves are shown at the right. Values are presented as the mean±SD from three independent experiments performed in duplicates.
Conversion of calcein-AM (calcein acetoxymethyl ester, (CN Bioscience GmbH, Bad Soden, Germany) to calcein was used to measure cell proliferation. 12 hr after transfection, HEK293T cells were seeded to 96-well micro-plates at 1×10^4 cells/well. After 24, 36, 48 and 60 hr, cells were washed with PBS, incubated with 2 μM calcein-AM, and the gradual increase in fluorescence intensity within the cells was recorded by a fluorescence multi-well plate reader (CytoFluor Series 4000/TC, PerSeptive Biosystems, (Applied Biosystems, Forster City, USA) for 20 min in 1 min intervals. Excitation wavelength used for measurements of fluorescence was 485 nm with a bandwidth of 20 nm; emission wavelength was 530 nm with a bandwidth of 25 nm. Under the experimental conditions used, there is a direct correlation between the accumulation ratio of intracellular calcein fluorescence and the number of viable cells. The data from three independent experiments were analyzed by Sigmaplot and expressed as the mean±standard deviation. For statistical analysis, student's t test was used. Differences with a P<0.01 were considered statistically significant.
Given the functional significance of ERK/RSK-directed TIF-IA phosphorylation on Pol I transcription, mutations that enhance or abrogate TIF-IA activity may have a positive or negative effect on cell growth. To test this, HEK293T cells were transfected with cDNAs encoding wild-type or mutant TIF-IA which harbor single or double point mutations at S649 and S633. The expression of TIF-IA was estimated on Western blots and the cellular growth rate was measured by calcein-AM staining. Calcein-AM is a non-fluorescent, hydrophobic compound that is rapidly hydrolyzed by intracellular esterases releasing hydrophilic fluorescent calcein. Thus, cellular calcein fluorescence correlates with the amount of viable cells. […] Cells expressing FLAG-tagged wild-type or mutant TIF-IA were stained with FITC-conjugated anti-FLAG antibodies, identified by FACS and cell numbers were calculated by measuring the ratio of stained cells versus an internal standard. […] Conversely, the number of cells expressing TIF-IAS649A was 33% lower than the control. […] Taken together, the results reveal a striking correlation between phosphorylation of TIF-IA at serine 649, cellular rRNA synthetic activity and cell cycle progression.

[8] = tested on: HEK293T cells; test: Images of transfected HEK293T cells; type: cell-based; conditions: images taken after 48 h
Protocol: HEK293T cells were transfected with TIF-IA or TIFIAS649A, respectively, and images were taken after 48 h.

C=C1[C@@H](O)[C@@H]2O[C@]3(CC[C@H](/C=C/[C@@H](C)[C@@H]4CC(C)=C[C@@]5(O[C@H](C[C@@](C)(O)C(=O)O)CC[C@H]5O)O4)O3)CC[C@H]2O[C@@H]1[C@@H](O)C[C@H](C)[C@H]1O[C@@]2(CCCCO2)CC[C@H]1C [okadaic acid]
effect on inactivation of TIF-IA by rapamycin [1]: prevented inactivation of TIF-IA by rapamycin

COC[C@@H]([C@H](O)[C@H](O)C(=O)NCC[C@H](C)c1nc(/C=C/C[C@@H]2O[C@]3(C[C@@H](O)[C@@H]2C)O[C@H]([C@H](C[C@H](O)[C@H](C)[C@H](O)[C@H](C)/C=C(C)/C(C)=C/C=C/C(C)=C\C#N)OC)[C@H](OP(=O)(O)O)C3(C)C)co1)N(C)C [calyculin A]
effect on inactivation of TIF-IA by rapamycin [1]: prevented inactivation of TIF-IA by rapamycin

TIF-IAS649A: TIF-IA point mutant, serine residue at position 649 replaced by an alanine residue
cell viability as cause of growth inhibition [2]: not due to decreased cell viability
effect on transcriptional activity of extracts from exponentially growing cells [3]: acts as a dominant-negative inhibitor of Pol I transcription
effect on transcriptional activity of extracts from exponentially growing cells ([3]; listed as S649A): suppressed transcription well below the basal level
capability to rescue transcription of extracts from density-arrested cells [4]: abolished TIF-IA activity
decrease of G2/M-phase cells [5]: 25%
number of cells lower than the control [6]: 33%
cellular growth rate by calcein-AM staining [7]: impaired cell growth
cell growth on images [8]: retards cell growth
